The record followed here is US20080044474A1, “Dispersions of nanoureas comprising biologically active compounds” (Bayer MaterialScience AG, priority 2006, published 2008).

Common to all, as to format: cell-based
The test system of test [1] is Staphylococcus epidermidis 498. Nature of the test: Agar plate inhibition halo test of active compound-loaded nanourea dispersions. The following applies: 100 μl dialysed active compound-loaded nanourea dispersion of Example 2 (about 3% active compound on solids), incubation overnight, Müller-Hinton agar. The procedure: (§1) Cells of Staphylococcus epidermidis 498 and Bacillus subtilis 168 are plated out on agar plates such that, after incubation overnight at 37° C., they have formed a visible cell lawn on the agar. The agar contained a complex nutrient-rich medium (Müller-Hinton medium, OD600=0.1 set; 200 μl plated out per plate, dried at room temperature for one hour). A hole was in each case punched in the centre of the plates.

The next test deals with Bacillus subtilis 168. Described as above. The conditions noted are these: 100 μl dialysed active compound-loaded nanourea dispersion of Example 2 (about 3% active compound on solids), incubation overnight, Müller-Hinton agar. On the procedure: as §1
Test [2] relates to Staphylococcus epidermidis (ATC 14990). The experiment in a line: Agar plate inhibition halo test according to Example 5, overnight culture. The procedure:
Cells of Staphylococcus epidermidis 498 and Bacillus subtilis 168 are plated out on agar plates such that, after incubation overnight at 37° C., they have formed a visible cell lawn on the agar. […] A hole was in each case punched in the centre of the plates. […] After incubation overnight, the agar was examined for diffusing antibiotic active compounds in that the missing cell lawn around the punched-out hole can be seen (“inhibition halos”). These inhibition halos were compared with an agar plate without further additives and an agar plate with an active compound-free nanourea dispersion. A test according to Example 5 was carried out in an overnight culture of Staphylococcus epidermidis (ATC 14990). The underlying active compound-loaded dispersions F to K were in turn prepared analogously to Example 2. As comparisons L to O, aqueous solutions having various concentrations of ciprofloxacin (Cipro) were additionally tested.

Setting [3] is: active compound-loaded nanourea dispersion prepared analogously to Example 2.

Consider `O=[N+]([O-])[O-].[Ag+]` [Silver nitrate], for which the “Inhibition halo (diameter minus the diameter of the punched-out hole)” value in test [1] was 400 μm; in the test with Bacillus subtilis 168, 300 μm.
In test [2] (setting [3]), Potassium iodide-iodine complex displayed an Inhibition halo of 14 mm.
In the case of `COCN(COC)c1nc(N(COC)COC)nc(N(COC)COC)n1` [Hexamethoxymethylmelamine], the Inhibition halo in test [2] (setting [3]) was found to be 13 mm.
In test [2] (setting [3]), `O=C(O)c1ccccc1O` [Salicylic acid] returned an Inhibition halo of 38 mm.
For the compound `C=O` [Formaldehyde], the Inhibition halo in test [2] (setting [3]) was found to be 21 mm.
As to `O=C(O)c1cn(C2CC2)c2cc(N3CCNCC3)c(F)cc2c1=O` [Cipro, Ciprofloxacin], the Inhibition halo in test [2] (aqueous solution, 0.001 mM (comparison O)) is listed as 11 mm; in test [2] (aqueous solution, 0.01 mM (comparison N)) it was 26 mm; in test [2] (aqueous solution, 0.1 mM (comparison M)), 36 mm; in test [2] (aqueous solution, 1 mM (comparison L)) it was 43 mm.
The compound `CC(=O)Oc1ccccc1C(=O)O` [Acetylsalicylic acid] had an Inhibition halo in test [2] (setting [3]) of 13 mm.
